The structures appear in SMILES notation. Read-outs that look alike come from different tables or passages of the source.

One experiment concerns the target T1, human NaV1.8/β3 (Homo sapiens, UniProt Q9Y5Y9).
T1 construct: expressed in transfected cells
Nature of the experiment: Automated whole-cell patch-clamp electrophysiology (QPatch-16), NaV1.8. To be noted: for IC50: CHO cells, mean ± SEM; for V1/2 of voltage-dependence of activation of NaV1.8 / V1/2 of voltage-dependence of steady-state fast inactivation of NaV1.8: compound at 50 µM, compared with control before addition, paired t-test. The experiment is classed as cell-based. As to the method: (§1) Human embryonic kidney (HEK) 293 cells stably expressing human NaV1.7/β1 (SB Drug Discovery, Glasgow, UK) or Chinese hamster ovary (CHO) cells stably expressing human NaV1.8/β3 in a tetracycline-inducible system were cultured in a minimum essential media (MEM) supplemented with 10% fetal bovine serum (FBS), 2 mM l-glutamine, and selection antibiotics as recommended by the manufacturer. To induce hNaV1.8 expression, tetracycline (1 μg/mL) was added to the culture media 72 h prior to the functional assays. The cells were passaged every 3–4 days after reaching a 70–80% confluence using TrypLE Express (Thermo Fisher Scientific, Scoresby, VIC, Australia) and grown in an incubator at 37 °C with 5% CO2. Prior to the electrophysiology experiments, the cells were dissociated with TrypLE Express and resuspended in Dulbecco’s Modified Eagle Medium (DMEM) with 25 mM HEPES, 100 U/mL penicillin-streptomycin, and 0.04 mg/mL of a trypsin inhibitor from Glycine max (soybean), then stirred for 30 min.
Whole-cell patch-clamp experiments were performed on a QPatch-16 automated electrophysiology platform (Sophion Bioscience, Ballerup, Denmark) using single hole (QPlate 16 with a standard resistance of 2 ± 0.4 MΩ for NaV1.7) or multi-hole (QPlate 16× with a standard resistance 0.2 ± 0.04 MΩ for NaV1.8). Whole-cell currents were filtered at 8 kHz and acquired at 25 kHz and the linear leak was corrected using P/4 subtraction (leak potential −90 mV, leak sweep amplitude 10%).
The extracellular solution contained in mM included NaCl 140 (NaCl 70/Choline Chloride 70 for NaV1.7), KCl 4, CaCl2 2, MgCl2 1, HEPES 10, and glucose 10; pH 7.4; osmolarity 305 mOsm. TTX (1 μM) was added to the extracellular solution for the NaV1.8 recordings to inhibit endogenous TTX-sensitive NaV currents in CHO cells. The intracellular solution contained in mM included CsF 140, EGTA/CsOH 1/5, HEPES 10, and NaCl 10; pH 7.3 with CsOH; osmolarity 320 mOsm. Compounds were made up to a 100 mM stock in DMSO and diluted in an extracellular solution at the concentrations stated. Concentration–response curves at the resting state were acquired using a holding potential of −90 mV and a 50 ms test pulse to −20 mV (for NaV1.7) or +10 mV (for NaV1.8) every 20 s (0.05 Hz). Concentration–response curves at the inactivated state were acquired using a holding potential of −90 mV, an 8 s conditioning pulse to −40 mV, a 20 ms recovery pulse to −90 mV, and a 50 ms test pulse to +10 mV every 20 s (0.05 Hz). Peak current was normalized to the buffer control after 2 min incubations of increasing concentrations of the compound (1–100 μM). I–V curves were obtained with a holding potential of −90 mV and a series of 500 ms step pulses that ranged from −80 to +90 mV in 5 mV increments, followed by a 20 ms test pulse to +10 mV to assess the voltage-dependence of the steady-state fast inactivation (repetition interval 5 s). Peak currents were normalized to the buffer control before and after the 5 min incubation of the compound (50 μM).
The data were plotted and analyzed via GraphPad Prism, version 9.5.1. Statistical significance was defined as p < 0.05 and was determined via the paired t-test. Concentration–response curves were fitted with a four-parameter Hill equation with the variable Hill coefficient. Conductance–voltage curves were generated by calculating the conductance (G) at each voltage (V) using the equation G = I/(V − Vrev), where Vrev is the reversal potential. Conductance–voltage and steady-state fast inactivation relationships were fitted using a Boltzmann equation. The data are expressed as the mean ± standard error of the mean (SEM).
On the technique in general: Patch clamp records ionic current or voltage across a cell membrane.

In the next experiment the target is human NaV1.7/β1 (Homo sapiens, UniProt Q15858). Briefly: Automated whole-cell patch-clamp electrophysiology (QPatch-16), NaV1.7. The experiment is classed as cell-based. The conditions noted are these: 50 ms voltage step to −20 mV from −90 mV holding potential; HEK293 cells; mean ± SEM; read-out: IC50, inhibition of NaV1.7 peak current. As to the method:
as §1, with “min. […]” for “min.”
The data were plotted and analyzed via GraphPad Prism, version 9.5.1. Statistical significance was defined as p < 0.05 and was determined via the paired t-test. […] The data are expressed as the mean ± standard error of the mean (SEM).

Another experiment deals with nAChR subtype α3β4. Details: method as in PMID 31276409. To be noted: cited from earlier work.
For experiment [1], the system named is rodent vascular smooth muscle. Details: method as in PMID 31362388. To be noted: rodent vascular smooth muscle ex vivo; via activation of potassium channels and inhibition of CaV1.2; read-out: IC50, vasodilation; cited from earlier work.
Setting [2] is: 8 s conditioning voltage step to −40 mV to inactivate approximately half of the available channels, read-out: IC50, inhibition of NaV1.8 peak current after inactivating conditioning step.
Where [3] appears, read: resting state: 50 ms voltage step to 10 mV from −90 mV holding potential, read-out: IC50, inhibition of NaV1.8 peak current.

T1 sequence (Q9Y5Y9 whole entry): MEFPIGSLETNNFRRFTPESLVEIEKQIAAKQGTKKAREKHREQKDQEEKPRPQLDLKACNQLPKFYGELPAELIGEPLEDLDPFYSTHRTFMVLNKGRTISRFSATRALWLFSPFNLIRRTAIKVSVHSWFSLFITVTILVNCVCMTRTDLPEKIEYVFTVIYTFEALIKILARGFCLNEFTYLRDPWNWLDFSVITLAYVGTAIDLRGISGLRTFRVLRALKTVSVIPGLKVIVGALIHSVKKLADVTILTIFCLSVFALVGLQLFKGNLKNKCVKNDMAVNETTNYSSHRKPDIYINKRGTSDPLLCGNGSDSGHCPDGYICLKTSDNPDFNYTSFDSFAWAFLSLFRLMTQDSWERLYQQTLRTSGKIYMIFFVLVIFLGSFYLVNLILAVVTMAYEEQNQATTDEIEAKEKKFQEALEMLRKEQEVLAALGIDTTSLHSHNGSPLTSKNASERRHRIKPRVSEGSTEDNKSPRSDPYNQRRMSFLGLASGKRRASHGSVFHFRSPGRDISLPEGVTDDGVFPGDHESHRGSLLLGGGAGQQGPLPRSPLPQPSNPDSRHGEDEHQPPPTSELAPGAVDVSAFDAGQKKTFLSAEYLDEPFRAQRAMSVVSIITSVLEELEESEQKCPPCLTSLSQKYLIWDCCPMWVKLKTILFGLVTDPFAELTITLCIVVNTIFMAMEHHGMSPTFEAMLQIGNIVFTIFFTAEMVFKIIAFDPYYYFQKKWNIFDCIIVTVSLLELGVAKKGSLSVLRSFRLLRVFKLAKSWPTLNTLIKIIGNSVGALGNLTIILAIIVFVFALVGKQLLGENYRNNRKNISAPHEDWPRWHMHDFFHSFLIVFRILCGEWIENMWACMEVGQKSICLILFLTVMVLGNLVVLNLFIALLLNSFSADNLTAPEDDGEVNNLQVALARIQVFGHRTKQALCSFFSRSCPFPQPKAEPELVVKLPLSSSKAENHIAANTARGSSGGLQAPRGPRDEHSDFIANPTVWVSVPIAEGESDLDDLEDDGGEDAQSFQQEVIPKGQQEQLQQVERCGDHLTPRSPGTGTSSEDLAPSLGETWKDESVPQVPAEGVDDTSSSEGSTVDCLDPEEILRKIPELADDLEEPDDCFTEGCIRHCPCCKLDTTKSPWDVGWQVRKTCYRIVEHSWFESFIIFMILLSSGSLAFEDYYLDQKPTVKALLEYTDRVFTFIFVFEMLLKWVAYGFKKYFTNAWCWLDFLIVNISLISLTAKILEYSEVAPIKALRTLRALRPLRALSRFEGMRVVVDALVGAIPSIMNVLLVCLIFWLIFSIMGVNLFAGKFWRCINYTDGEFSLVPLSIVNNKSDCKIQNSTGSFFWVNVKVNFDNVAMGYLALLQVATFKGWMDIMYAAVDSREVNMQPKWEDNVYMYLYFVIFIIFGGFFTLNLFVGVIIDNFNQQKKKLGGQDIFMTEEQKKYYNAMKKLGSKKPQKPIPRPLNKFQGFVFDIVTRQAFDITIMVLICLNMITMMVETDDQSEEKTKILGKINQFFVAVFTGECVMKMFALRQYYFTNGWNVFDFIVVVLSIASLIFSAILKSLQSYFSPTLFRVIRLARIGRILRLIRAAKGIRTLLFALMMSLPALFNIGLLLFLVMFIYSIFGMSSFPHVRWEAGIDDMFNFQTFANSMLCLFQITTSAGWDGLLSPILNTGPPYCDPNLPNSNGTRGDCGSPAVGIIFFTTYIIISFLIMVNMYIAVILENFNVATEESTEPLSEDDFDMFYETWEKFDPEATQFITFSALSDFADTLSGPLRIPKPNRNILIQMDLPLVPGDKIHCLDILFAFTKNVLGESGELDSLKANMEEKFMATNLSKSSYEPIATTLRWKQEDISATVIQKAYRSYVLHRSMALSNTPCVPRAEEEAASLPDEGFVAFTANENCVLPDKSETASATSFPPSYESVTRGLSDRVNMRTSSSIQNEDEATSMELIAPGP
T1 sequence (Q9NY72 25-215 partner limits assumed): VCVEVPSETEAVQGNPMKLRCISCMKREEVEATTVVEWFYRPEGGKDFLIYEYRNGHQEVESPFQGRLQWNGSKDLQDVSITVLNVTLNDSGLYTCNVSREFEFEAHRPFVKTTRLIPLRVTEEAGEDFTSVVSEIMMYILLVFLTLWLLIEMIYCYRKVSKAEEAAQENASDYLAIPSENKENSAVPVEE
human NaV1.7/β1, sequence (Q15858 whole entry): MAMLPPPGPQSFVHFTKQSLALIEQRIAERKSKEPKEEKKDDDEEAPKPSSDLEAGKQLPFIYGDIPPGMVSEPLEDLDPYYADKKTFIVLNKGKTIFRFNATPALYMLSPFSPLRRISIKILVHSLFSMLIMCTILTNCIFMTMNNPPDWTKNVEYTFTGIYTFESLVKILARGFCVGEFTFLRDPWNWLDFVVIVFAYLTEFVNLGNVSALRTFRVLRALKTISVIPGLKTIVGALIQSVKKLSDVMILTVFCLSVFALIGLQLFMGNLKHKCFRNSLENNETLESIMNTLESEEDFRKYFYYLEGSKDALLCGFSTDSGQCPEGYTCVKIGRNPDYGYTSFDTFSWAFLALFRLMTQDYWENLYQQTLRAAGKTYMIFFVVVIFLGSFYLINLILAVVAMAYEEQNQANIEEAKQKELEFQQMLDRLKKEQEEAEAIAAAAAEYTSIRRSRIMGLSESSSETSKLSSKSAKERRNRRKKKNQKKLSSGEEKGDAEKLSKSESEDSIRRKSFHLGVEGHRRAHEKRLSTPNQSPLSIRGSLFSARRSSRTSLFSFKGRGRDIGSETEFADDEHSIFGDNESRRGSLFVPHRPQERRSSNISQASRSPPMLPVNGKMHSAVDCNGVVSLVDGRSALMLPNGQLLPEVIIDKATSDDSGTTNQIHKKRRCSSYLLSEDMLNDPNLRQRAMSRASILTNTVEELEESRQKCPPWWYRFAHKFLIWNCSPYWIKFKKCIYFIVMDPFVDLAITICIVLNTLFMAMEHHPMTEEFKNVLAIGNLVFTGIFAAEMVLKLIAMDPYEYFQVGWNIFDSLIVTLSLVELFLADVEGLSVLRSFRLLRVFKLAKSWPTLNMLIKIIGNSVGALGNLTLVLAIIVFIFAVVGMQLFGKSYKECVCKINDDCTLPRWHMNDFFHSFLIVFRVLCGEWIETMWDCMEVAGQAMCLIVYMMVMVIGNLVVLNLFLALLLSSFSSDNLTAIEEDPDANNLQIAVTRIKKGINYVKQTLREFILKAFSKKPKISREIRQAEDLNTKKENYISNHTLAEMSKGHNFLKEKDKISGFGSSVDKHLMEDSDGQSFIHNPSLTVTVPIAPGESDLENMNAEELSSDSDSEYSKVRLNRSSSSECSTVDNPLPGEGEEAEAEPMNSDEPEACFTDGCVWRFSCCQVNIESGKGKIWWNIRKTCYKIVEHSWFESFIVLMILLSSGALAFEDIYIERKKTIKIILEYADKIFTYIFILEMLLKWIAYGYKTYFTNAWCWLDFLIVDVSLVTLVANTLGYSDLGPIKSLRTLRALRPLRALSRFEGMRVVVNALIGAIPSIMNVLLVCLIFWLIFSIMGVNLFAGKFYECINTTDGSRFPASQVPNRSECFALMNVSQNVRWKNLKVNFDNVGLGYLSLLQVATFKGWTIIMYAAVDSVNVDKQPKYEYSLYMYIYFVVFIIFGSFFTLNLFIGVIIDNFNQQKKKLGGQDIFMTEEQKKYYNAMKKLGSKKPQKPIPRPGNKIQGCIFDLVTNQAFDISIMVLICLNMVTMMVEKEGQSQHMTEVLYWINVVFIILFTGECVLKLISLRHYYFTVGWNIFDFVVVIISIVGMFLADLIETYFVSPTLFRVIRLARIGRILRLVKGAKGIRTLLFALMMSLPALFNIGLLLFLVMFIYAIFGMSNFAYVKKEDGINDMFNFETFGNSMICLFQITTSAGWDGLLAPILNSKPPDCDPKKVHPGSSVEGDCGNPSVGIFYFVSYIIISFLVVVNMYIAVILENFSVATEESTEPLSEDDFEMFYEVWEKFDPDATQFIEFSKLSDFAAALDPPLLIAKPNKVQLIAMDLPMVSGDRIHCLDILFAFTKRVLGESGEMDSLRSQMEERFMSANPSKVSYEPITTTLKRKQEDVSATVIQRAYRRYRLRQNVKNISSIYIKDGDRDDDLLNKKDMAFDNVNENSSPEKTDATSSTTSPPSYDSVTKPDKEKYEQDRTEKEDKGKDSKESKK
human NaV1.7/β1, sequence (Q07699 19-218 partner): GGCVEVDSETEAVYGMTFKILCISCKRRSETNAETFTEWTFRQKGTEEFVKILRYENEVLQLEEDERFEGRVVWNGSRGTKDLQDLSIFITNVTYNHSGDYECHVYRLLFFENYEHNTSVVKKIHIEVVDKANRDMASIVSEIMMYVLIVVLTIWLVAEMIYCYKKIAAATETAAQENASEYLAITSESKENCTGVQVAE

As for `CC1(C)NC2Cc3c([nH]c4ccccc34)C3(C)CCC1CC23` (stereo not shown) [aristoteline], the IC50 at human NaV1.8/β3 (setting [2]) is 30 ± 6 µM; on human NaV1.8/β3 (setting [3]), 68 ± 3 µM; on human NaV1.7/β1 it was 49 ± 7 µM; in the experiment on nAChR subtype α3β4, 0.4 µM; in experiment [1] it was 16 µM. Moreover, the “V1/2 of voltage-dependence of activation of NaV1.8” value at human NaV1.8/β3 came to 1.0 ± 0.0 mV. Also, the “V1/2 of voltage-dependence of steady-state fast inactivation of NaV1.8” value on human NaV1.8/β3 is −34.9 ± 1.4 mV.

As for `CC1=CC[C@H]2C[C@@H]1[C@@H](Cc1c[nH]c3ccccc13)NC2(C)C` [hobartine], the “Shift of V1/2 of voltage-dependence of activation of NaV1.8” value on human NaV1.8/β3 (50 µM, n = 5) is listed as −9.0 mV. Moreover, the IC50 at human NaV1.8/β3 (setting [2]) is 20 ± 2 µM; on human NaV1.8/β3 (setting [3]), 54 ± 1 µM; at human NaV1.7/β1, 69 ± 3 µM. On human NaV1.8/β3, the “V1/2 of voltage-dependence of activation of NaV1.8” value is recorded as −8.6 ± 0.8 mV. The “V1/2 of voltage-dependence of steady-state fast inactivation of NaV1.8” value at human NaV1.8/β3 is −41.1 ± 3.8 mV.

By IC50 is commonly meant the point on the concentration scale where inhibition reaches its midpoint.
